Consider 1 compound from publication PMC10924921, “Mi-2β promotes immune evasion in melanoma by activating EZH2 methylation” (Nature Communications, 2024).

One data set concerns 468 kinases. Put plainly: KINOMEscan screening (DiscoveRx). The data set is classed as binding. The settings on record: 1000 nM.
Data set [1] has as its system H3K27me3 and H3K27ac in melanoma cells (B16F10, PM). Put plainly: Western blot of epigenetic modifications of H3. The data set is classed as cell-based, mouse. As to the method: The lysis buffer (50 mM Tris pH 7.4, 1% Triton X-100, 0.5 mM EDTA, 0.5 mM EGTA, 150 mM NaCl, 10% glycerol, 1 mM phenylmethylsulfonyl fluoride and complete protease inhibitor cocktail (Roche)) were used to prepare the whole-cell lysates, which was followed by homogenization and centrifuge (14,000 rpm for 15 min at 4 °C). Pierce BCA Protein Assay Kit (Thermo Fisher Scientific) was used to detect protein concentration. After SDS-PAGE separation and PVDF membrane (BIO-RAD) transfer of the proteins, the specific primary was probed at 4 °C for overnight, before incubated with corresponding horseradish peroxidase (HRP)-conjugated 2nd antibodies. Pierce ECL Western Blotting Substrate (Thermo Fisher Scientific) was used for protein detection. Antibodies were: anti-Mi-2β(1:1000), anti-EZH2 (ab70469, Abcam) (1:1000), anti-β-actin-peroxidase antibody (AC15) (1:5000) and anti-rabbit secondary antibody (A-4914) (1:10,000). Antibody information have shown in Supplementary data 3.
Supplementary Figure 10. […] A mouse survival curve is shown, with log-rank test for mouse survival P value. b,c The epigenetic modifications of H3 (H3K27ac, H3K27me1 and H3K27me3) were measured in B16F10 cells stimulated with GSK126 or Z36-MP5 as indicated (n = 3, independent experiments). d The amount of secreted Cxcl9 and Cxcl10 was measured by ELISA in […]

A further data set relates to B16F10 cells. Put plainly: CCK-8 cell proliferation. The data set is classed as cell-based, mouse. The conditions noted are these: CCK-8, B16F10 cells. As to the method:
To test whether Z36-MP5 affects cell proliferation, cells were seeded into 96-well plates at a density of 1 × 10^3 cells/100 μl per well. CCK-8 was used to detect changes in proliferation ability after 3 days of treatment with Z36-MP5 (25 μM). To test whether Mi-2β expression in T cells or treatment of T cells with Z36-MP5 affects the ability of T cells to kill tumor cells, Mi-2β in Pmel-1 T cells was manipulated or Pmel-1 cells were exposed to Z36-MP5 (25 μM) for 24 hrs. The number of cells was quantified. One thousand Pmel-1 T cells were then co cultured with 1000 tumor cells for 24 hrs, and the number of tumor cells was counted.
(§1) Supplementary Figure 8. In vitro assay for Mi-2β inhibitors. a The body weight changes of C57BL/6J mice treated with Z36-MP5 (30 mg/kg/day) for 2 weeks. Data are mean ± SEM (n=5). b H&E staining of tissues in C57BL/6J mice treated with or without Z36 -MP5 (30 mg/kg/day) for 2 weeks. […]
(§2) The growth of tumor grafts was measured. n = 5. g Mice bearing B16F10 cell s were treated with MS177 (100 mg/kg, 5 days) and then Z36 -MP5 (30 mg/kg/day) or vehicles, accompanied with anti -PD-1 antibody […]

Data set [2] is described as follows: Tolerability: mouse weight and organ histology. The data set is classed as in vivo. The settings on record: 30 mg/kg/day for 2 weeks. As to the method:
Z36-MP5 was chosen for further validation and experimental therapeutics in vivo. […] To investigate its cellular inhibitory activity, B16F10 cells were treated with Z36-MP5 at concentrations ranging from 5 to 100 µM, and the activation of Mi-2β target genes measured by RT-qPCR. […] In addition, the pharmacokinetic properties of Z36-MP5 in Sprague-Dawley rats with administration of intraperitoneal injection dose of 1.0 mg/kg. […] To exclude any effects on the host cells, we implanted Mi-2β-null melanoma cells into C57BL6 mice and then treated the mice with Z36-MP5 accompanied by anti-PD-1 therapy.
as §1, §2

Data set [3] has as its system tumor-infiltrating lymphocytes in B16F10 graft. Description: Flow cytometry of tumor-infiltrating lymphocytes, B16F10 graft. Format: in vivo, C57BL/6 mice. As to the method:
Tumors were minced with scissors, and then digested with the digestion buffer (RPMI 1640 medium, 5% FBS, 1% penicillin-streptomycin, 25 mM HEPES, and 300 U collagenase (Sigma C0130)) on a shaker at 37 °C for 2 hours. Single cells were prepared through a 70 μm cell strainer. Erythrocytes were removed by incubation in red blood cell lysis buffer (R7757, Sigma) at room temperature for 5 min. The cells were prepared in PBS (with concentration of ~2 × 10^7) for studies.
The single-cell suspension were fixed with 2% paraformaldehyde solution (J19943K2, Thermo Scientific). CD45 + T cells were selected from single-cell suspension (about 2 × 10^7 cells digest from […] tumor tissue) by flow cytometry with the follow antibodies (anti-mouse CD45; BD pharmingen, 561875). And then the cells were stained anti-mouse CD3e PE (145-2C11, BD pharmingen, 553063), anti-mouse CD4 FITC (RM4-5, BD pharmingen, 553046), anti-mouse CD4 PE/Cy7 (GK1.5, BioLegend, 100421), anti-mouse CD8 FITC (53-6.7, BD pharmingen, 553031), anti-mouse CD8a APC/Cy7 (53-6.7, BioLegend 100713), anti-mouse IFN-γ PE (XMG1.2, eBioscience, 12731181), anti-mouse CD69 PE (H1.2F3, Biolegend, 104508), anti-mouse CD25 Alexa Fluor 488 (PC61.5, eBioscience, 53025182), anti-mouse CD107a-V450 (1D4B, BD, 560648), anti-human/mouse granzyme B FITC (GB11, BioLegend, 515403). […]
(In general: In flow cytometry, cells or beads pass a laser one at a time.)

Structures are written as SMILES. Entries after “also recorded” stand apart in the source; their conditions may differ.

Consider `Cn1c(=O)[nH]c2ccc(-c3cccc(C(=O)NC4CCn5ccnc5C4)c3)cc21` (stereo not shown) [Z36-MP5], for which the “activity against 468 kinases” value in the data set with 468 kinases is on record as “extremely high kinase selectivity; also recorded: not significantly active on any targets tested”. In addition, the H3K27ac level entry in data set [1] (PM cells, compared to GSK126 treatment) is recorded as “only slightly increased”. Further, the “level of H3K27me3” value in data set [1] (melanoma cells) is listed as “repressed”. Besides, in the data set with B16F10 cells, the “proliferation of tumor cells” value is on record as “not significantly inhibited”. The “tolerability (mouse weight, organ tissue histological staining)” value in data set [2] is reported as “tolerated without significant toxicity”. Further, in data set [3], the “CD8+ T-cell TILs in graft melanomas” value is recorded as “moderate increase”; the “GZMB expression and activation markers CD69, IFN-γ, CD25, CD107 in tumor-infiltrating CD8+ T cells” value is “upregulation”.
